Results: the supplement of paper PMC10307832

Key:
Assay in all cases: relative viability (nuclei count vs DMSO), 5 days (fraction); higher = more cells survive
Erlotinib + Foretinib = compound: C#Cc1cccc(Nc2ncnc3cc(OCCOC)c(OCCOC)cc23)c1 [Erlotinib] + COc1cc2c(Oc3ccc(NC(=O)C4(C(=O)Nc5ccc(F)cc5)CC4)cc3F)ccnc2cc1OCCCN1CCOCC1 [Foretinib] (partner 0.25 µM)
Outline: (§1)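 Relative viability was taken as the ratio of nuclei in treated wells to nuclei in vehicle wells. Lung cancer cell lines in 1536-well plates received compounds by pin tool one day after seeding, either one drug alone or a fixed anchor-drug dose plus five library-drug doses (not always all listed) in √10 steps. Nuclei were counted on 4× images after 5 days of treatment, and values are medians of duplicate plates.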

AT9283 + Luminespib = compound: O=C(Nc1c[nH]nc1-c1nc2ccc(CN3CCOCC3)cc2[nH]1)NC1CC1 [AT9283] + CCNC(=O)c1noc(-c2cc(C(C)C)c(O)cc2O)c1-c1ccc(CN2CCOCC2)cc1 [Luminespib] (partner 0.01 µM)
Outline: as §1

Erlotinib + Navitoclax = compound: C#Cc1cccc(Nc2ncnc3cc(OCCOC)c(OCCOC)cc23)c1 [Erlotinib] + CC1(C)CCC(c2ccc(Cl)cc2)=C(CN2CCN(c3ccc(C(=O)NS(=O)(=O)c4ccc(N[C@H](CCN5CCOCC5)CSc5ccccc5)c(S(=O)(=O)C(F)(F)F)c4)cc3)CC2)C1 [Navitoclax] (partner 0.5 µM)
Outline: as §1

AT9283 + Phenformin = compound: O=C(Nc1c[nH]nc1-c1nc2ccc(CN3CCOCC3)cc2[nH]1)NC1CC1 [AT9283] + N=C(N)NC(=N)NCCc1ccccc1 [Phenformin] (partner 250 µM)
Outline: as §1

AT9283 + Crizotinib = compound: O=C(Nc1c[nH]nc1-c1nc2ccc(CN3CCOCC3)cc2[nH]1)NC1CC1 [AT9283] + C[C@@H](Oc1cc(-c2cnn(C3CCNCC3)c2)cnc1N)c1c(Cl)ccc(F)c1Cl [Crizotinib] (partner 1 µM)
Outline: as §1

Cell Line | relative viability (Erlotinib + Foretinib; first compound 0.02 µM) | relative viability (Erlotinib + Foretinib; first compound 0.2 µM) | relative viability (Erlotinib + Foretinib; first compound 0.6325 µM) | relative viability (Erlotinib + Foretinib; first compound 2 µM) | relative viability (AT9283 + Luminespib; first compound 0.003 µM) | relative viability (AT9283 + Luminespib; first compound 0.03 µM) | relative viability (AT9283 + Luminespib; first compound 0.09487 µM) | relative viability (AT9283 + Luminespib; first compound 0.3 µM) | relative viability (Erlotinib + Navitoclax; first compound 0.02 µM) | relative viability (Erlotinib + Navitoclax; first compound 0.2 µM) | relative viability (Erlotinib + Navitoclax; first compound 0.6325 µM) | relative viability (Erlotinib + Navitoclax; first compound 2 µM) | relative viability (AT9283 + Phenformin; first compound 0.003 µM) | relative viability (AT9283 + Phenformin; first compound 0.03 µM) | relative viability (AT9283 + Phenformin; first compound 0.09487 µM) | relative viability (AT9283 + Phenformin; first compound 0.3 µM) | relative viability (AT9283 + Crizotinib; first compound 0.003 µM) | relative viability (AT9283 + Crizotinib; first compound 0.03 µM) | relative viability (AT9283 + Crizotinib; first compound 0.09487 µM) | relative viability (AT9283 + Crizotinib; first compound 0.3 µM)
H3255 | 0.808 | 0.624 | 0.472 | 0.171 | 0.713 | 0.905 | 0.969 | 0.254 | 0.449 | 0.147 | 0.0899 | 0.0743 | 0.403 | 0.328 | 0.273 | 0.255 | 0.909 | 0.77 | 0.471 | 0.146
HCC-44 |  |  |  |  | 1.04 | 1.19 | 0.426 | 0.319 | 0.992 | 0.866 | 1.05 | 0.868 | 0.124 | 0.169 | 0.106 | 0.0704 | 0.775 | 0.634 | 0.457 | 0.211
HCC-78 | 0.477 | 0.42 | 0.362 | 0.322 |  |  |  |  | 0.731 | 0.503 | 0.744 | 0.621 | 0.611 | 0.511 | 0.333 | 0.26 | 0.328 | 0.272 | 0.213 | 0.189
HCC-366 | 0.867 | 0.936 | 0.976 | 0.941 |  |  |  |  | 1.03 | 1.02 | 1.02 | 1.01 | 0.609 | 0.657 | 0.0853 | 0.0845 | 0.547 | 0.179 | 0.105 | 0.0338
IA-LM | 1.31 | 1.12 | 1.19 | 1.03 |  |  |  |  | 0.847 |  | 1.01 | 0.802 |  |  |  |  | 0.846 | 0.261 | 0.0839 | 0.132
LCLC-103H | 0.743 | 0.799 | 0.848 | 0.566 | 0.829 | 0.755 | 0.313 | 0.304 |  |  |  |  | 0.295 | 0.356 | 0.331 | 0.205 | 1.04 | 0.963 | 0.932 | 0.5
NCI-H358 | 0.656 | 0.408 | 0.39 | 0.176 | 0.4 | 0.147 | 0.166 | 0.129 |  |  |  |  | 0.309 | 0.1 | 0.0619 | 0.0785 | 0.391 | 0.175 | 0.156 | 0.145
NCI-H522 |  |  |  |  | 1.14 | 0.99 | 0.467 | 0.51 |  |  |  |  | 0.555 | 0.481 | 0.44 | 0.377 |  |  |  | 
NCI-H650 | 1.03 | 1.02 | 1.19 | 0.924 | 0.771 | 0.701 | 0.242 | 0.173 |  |  |  |  | 0.366 | 0.436 | 0.223 | 0.165 | 0.6 | 0.368 | 0.222 | 0.22
NCI-H661 | 1 | 0.921 | 1.1 | 0.705 | 0.916 | 0.399 | 0.304 | 0.313 |  |  |  |  | 0.276 | 0.269 | 0.252 | 0.236 | 0.986 | 0.571 | 0.409 | 0.452
NCI-H1299 | 1.11 | 1.08 | 1.16 | 1.07 |  |  |  |  | 1.11 | 1.08 | 1.06 | 0.981 |  |  |  |  | 1.01 | 0.475 | 0.339 | 0.346
NCI-H1395 | 1.04 | 0.906 | 1.13 | 0.975 | 0.639 | 0.649 | 0.397 | 0.418 | 1.09 | 1.02 | 1.32 | 1.13 | 0.391 | 0.43 | 0.316 | 0.321 |  |  |  | 
NCI-H1563 | 0.979 | 0.836 | 0.955 | 0.951 | 0.5 | 0.527 | 0.443 | 0.45 |  |  |  |  | 0.638 | 0.663 | 0.605 | 0.556 | 0.955 | 0.713 | 0.686 | 0.658
NCI-H1623 | 0.923 | 0.679 | 0.366 | 0.301 | 0.466 | 0.559 | 0.437 | 0.37 |  |  |  |  | 0.597 | 0.578 | 0.55 | 0.336 |  |  |  | 
NCI-H1703 | 0.33 | 0.419 | 0.343 | 0.357 |  |  |  |  | 1.1 | 1.09 | 1.32 | 1.11 |  |  |  |  | 0.694 | 0.401 | 0.211 | 0.225
NCI-H1792 |  |  |  |  | 0.264 | 0.454 | 0.382 | 0.229 | 0.451 | 0.545 | 0.84 | 0.579 |  | 0.255 | 0.333 | 0.148 | 0.933 | 0.993 | 0.984 | 0.811
NCI-H1793 | 0.575 | 0.421 | 0.541 | 0.408 | 0.194 | 0.184 | 0.179 | 0.136 | 0.447 | 0.325 | 0.297 | 0.387 | 0.301 | 0.352 | 0.138 | 0.219 |  |  |  | 
NCI-H2342 | 1.08 | 0.899 | 0.932 |  | 0.795 | 0.93 | 0.499 | 0.348 |  |  |  |  | 0.592 | 0.423 | 0.534 | 0.341 |  |  |  | 
SW 900 | 0.98 | 0.92 | 0.792 | 0.757 | 0.178 | 0.19 | 0.172 | 0.171 |  |  |  |  | 0.63 | 0.595 | 0.486 | 0.256 |  |  |  | 
